Tested on: Hepal-6 hepatoma cells
Test: Tumor growth inhibition rate in mouse model (Hepal-6 hepatoma cells transplanted into C57BL/6 mice)
Assay type: in vivo, mice (C57BL/6)
Protocol: (E)-N1-(3-(dimethylamino)propyl)-N8-hydroxy-2-((naphthalen-1-yloxy)methyl)-2-octenediamide phosphate (CG-745, CAS No. 2173017-02-0) was used as the alkylcarbamoyl naphthalenyloxy octenoyl hydroxyamide compound, and BP0146 (BioXcell, West Lebanon, N.H., USA) was used as the anti-PD-1 antibody.
1×10^6 Hepal-6 hepatoma cells were injected into the left flank of 6-week-old C57BL6 mice. After 5 days, they were separated into 4 groups for administration of the vehicle, CG-745 alone, the anti-PD-1 antibody alone, or a combination of CG-745 and the anti-PD-1 antibody. The tumor volume was defined as (long axis)×(short axis)^2×0.5. […] Vehicle, CG-745, and the anti-PD-1 antibody were administered intraperitoneally (I.P). CG-745 was administered at a dose of 20 mg/kg for 5 consecutive days followed by 2 days of rest (1 treatment cycle) and the treatment cycle was repeated 3 times. The anti-PD-1 antibody was administered once at a dose of 5 mg/kg together with CG-745 on the fifth day of the first treatment cycle of CG-745.
The average inhibition rate of tumor growth for 9 mice is shown in FIG. 1, and the results for each of 9 mice are shown in FIG. 2.

Structure (SMILES): CN(C)CCCNC(=O)/C(=C/CCCCC(=O)NO)COc1cccc2ccccc12.O=P(O)(O)O [Comparative Example 1, (E)-N1-(3-(dimethylamino)propyl)-N8-hydroxy-2-((naphthalen-1-yloxy)methyl)-2-octenediamide phosphate]
- tumor growth inhibition rate (Day 32, average of 9 mice, CG-745 20 mg/kg I.P. 5 days on/2 days off x 3 cycles, anti-PD-1 antibody 5 mg/kg I.P. once): 73.8%
- number of mice in which the tumor disappeared (of 9 mice per group, same dosing as the tumor growth inhibition rate): 4 mice

Reference: patent publication US20220287993A1, “PHARMACEUTICAL COMPOSITION COMPRISING HDAC INHIBITOR AND ANTI-PD1 ANTIBODY OR ANTI PD-L1 ANTIBODY” (CRYSTALGENOMICS, INC., priority 2019, published 2022)
